# Source: patent US8293979B2, “Weed controller metabolism proteins, genes, thereof and use of the same” (Sumitomo Chemical Company, Limited, priority 2001, dated 2012)
# Tested on: present invention protein (A1)
# Format: in vitro ADME, Streptomyces phaeochromogenes IFO12898
# Conditions: E. coli JM109/pKSN657F cell suspension, compound at 100 ppm, shaking at 30° C., ethyl acetate layer, HPLC
# Experimental: E. coli JM109/pKSN657F was cultured overnight at 37° C. in 3 ml of TB medium containing 50 μg/ml of ampicillin. A milliliter (1 ml) of the obtained culture medium was transferred to 100 ml of TB medium containing 50 μg/ml of ampicillin and cultured at 26° C. When OD660 reached about 0.5, 5-aminolevulinic acid was added to the final concentration of 500 μM, and the culturing was continued. Thirty (30) minutes thereafter, IPTG was added to a final concentration of 1 mM, and there was further culturing for 20 hours.
# The cells were recovered from the culture medium, washed with 0.1M tris-HCl buffer (pH7.5) and suspended in 10 ml of 0.1M Tris-HCl buffer containing 1% glucose. Compound (VI) was added to the obtained cell suspension to a final concentration of 100 ppm and that was incubated with shaking at 30° C. At each of 0 hours after and 1 day after the start of shaking, 2 ml of the cell suspension were fractioned. Fifty microliters (50 μl) of 2N HCl were added to each and those were extracted with 2 ml of ethyl acetate. The obtained ethyl acetate layers were analyzed on a HPLC under reaction condition 1. Compared to the concentration of compound (VI) detected from the ethyl acetate layer prepared from the cell suspension at 0 hours after the start of shaking, the concentration of compound (VI) detected from the ethyl acetate later prepared from the cell suspension at 1 day after the start of shaking was lower. Further a peak, which was not detected from the ethyl acetate layer prepared from the cell suspension at 0 hours after the start of shaking, was detected from the ethyl acetate layer prepared from the cell suspension at 1 day after the start of shaking Mass spectrometry of the compound contained in said peak was conducted. […]
# Other than utilizing compound (VIII) instead of compound (VI), there was conducted in accordance with the method described in Example 41(6), a culturing of E. coli JM109/pKSN657F, preparation of the cell suspension solution, incubation with shaking of the cell suspension solution to which compound (VIII) was added, reagent preparation from the cell suspension solution and HPLC analysis of the reagents. Compared to the concentration of compound (VIII) detected from the ethyl acetate layer prepared from the cell suspension at 0 hours after the start of shaking, the concentration of compound (VIII) detected from the ethyl acetate layer prepared from the cell suspension at 1 day after the start of shaking was lower. Further two peaks, which were not detected from the ethyl acetate layer prepared from the cell suspension at 0 hours after the start of shaking, were detected from the ethyl acetate layer prepared from the cell suspension at 1 day after the start of shaking Mass spectrometry of the compounds contained in said peaks were conducted. […]
row,SMILES,concentration of the compound detected from the cell suspension at 1 day compared to 0 hours after the start of shaking
1,CCc1ccc(COc2ccc(-n3c(=O)cc(C(F)(F)F)n(C)c3=O)cc2)c(OC(C)C(=O)OC)c1 (stereo not drawn) [compound (VI)],lower
2,COC(=O)C1(C)Cc2c(c(Cl)cc(F)c2-n2c(=O)cc(C(F)(F)F)n(C)c2=O)O1 (stereo not drawn) [compound (VIII)],lower
3,C#CCN1C(=O)COc2ccc(-n3c(=O)cc(C(F)(F)F)n(C)c3=O)cc21 [compound (XI)],lower
